Experimental data: PubChem BioAssay AID1963835 (Molecular Pharmacology Branch, DTP, NCI, 2024)

System: 699152-130-R-J1-PDC complex spheroid viability
Test: Anticancer human tumor 699152-130-R-J1-PDC patient-derived pancreatic carcinoma cell line growth inhibition [POLQ]
Details: for IC50: curve of first compound; for viability, T/C: stronger effect = lower value
In short: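 Patient-derived tumour cells were co-cultured with HUVEC and mesenchymal stem cells as multicellular spheroids at 37 °C. They were treated with POLQ inhibitors (novobiocin, ART-558, RP6685) alone or combined with other agents. Top concentrations were at or near clinical Cmax (otherwise 10 microM; SN-38 at 1 microM), decreasing in half-log steps.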

[1] = second compound 0.0316 µM, first compound 0.0316 µM
[2] = second compound 0.0316 µM, first compound 0.1 µM
[3] = second compound 0.1 µM, first compound 0.0316 µM
[4] = second compound 0.1 µM, first compound 0.1 µM
[5] = second compound 0.316 µM, first compound 0.0316 µM
[6] = second compound 0.316 µM, first compound 0.1 µM
[7] = second compound 1 µM, first compound 0.0316 µM
[8] = second compound 1 µM, first compound 0.1 µM
[9] = second compound 3.16 µM, first compound 0.0316 µM
[10] = second compound 3.16 µM, first compound 0.1 µM
[11] = second compound 10 µM, first compound 0.0316 µM
[12] = second compound 10 µM, first compound 0.1 µM
[13] = second compound 0.0316 µM, first compound 0.316 µM
[14] = second compound 0.0316 µM, first compound 1 µM
[15] = second compound 0.0316 µM, first compound 3.16 µM
[16] = second compound 0.0316 µM, first compound 10 µM
[17] = second compound 0.1 µM, first compound 0.316 µM
[18] = second compound 0.1 µM, first compound 1 µM
[19] = second compound 0.1 µM, first compound 3.16 µM
[20] = second compound 0.1 µM, first compound 10 µM
[21] = second compound 0.316 µM, first compound 0.316 µM
[22] = second compound 0.316 µM, first compound 1 µM
[23] = second compound 0.316 µM, first compound 3.16 µM
[24] = second compound 0.316 µM, first compound 10 µM
[25] = second compound 1 µM, first compound 0.316 µM
[26] = second compound 1 µM, first compound 1 µM
[27] = second compound 1 µM, first compound 3.16 µM
[28] = second compound 1 µM, first compound 10 µM
[29] = second compound 3.16 µM, first compound 0.316 µM
[30] = second compound 3.16 µM, first compound 1 µM
[31] = second compound 3.16 µM, first compound 3.16 µM
[32] = second compound 3.16 µM, first compound 10 µM
[33] = second compound 10 µM, first compound 0.316 µM
[34] = second compound 10 µM, first compound 1 µM
[35] = second compound 10 µM, first compound 3.16 µM
[36] = second compound 10 µM, first compound 10 µM
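Further: spheroids exposed to agents for 7 days before viability reading.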
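Wherever viability, T/C is given: percent of DMSO vehicle control viability so 100% = vehicle and 0% = no viable signal.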

For `CC[C@@]1(O)C(=O)OCc2c1cc1n(c2=O)Cc2cc3c(CN(C)C)c(O)ccc3nc2-1` + COC1C(OC(N)=O)C(O)C(Oc2ccc3c(O)c(NC(=O)c4ccc(O)c(CC=C(C)C)c4)c(=O)oc3c2C)OC1(C)C, the IC50 (second compound 0.0316 µM) was over 0.1 µM, the IC50 (second compound 0.1 µM) was over 0.1 µM and the IC50 (second compound 0.316 µM) was over 0.1 µM. For the same compound, the IC50 (second compound 1 µM) was 0.095 µM, the IC50 (second compound 3.16 µM) was over 0.1 µM and the IC50 (second compound 10 µM) was over 0.1 µM. It also gave a viability, T/C (second compound 0.0316 µM, first compound 0.000316 µM) of 116%, a viability, T/C (second compound 0.0316 µM, first compound 0.001 µM) of 101% and a viability, T/C (second compound 0.0316 µM, first compound 0.00316 µM) of 99.3%. The viability, T/C (second compound 0.0316 µM, first compound 0.01 µM) was 93.1%, the viability, T/C [1] was 79.6% and the viability, T/C [2] was 48.4%. For the same compound, the viability, T/C (second compound 0.1 µM, first compound 0.000316 µM) was 111%, the viability, T/C (second compound 0.1 µM, first compound 0.001 µM) was 99.6% and the viability, T/C (second compound 0.1 µM, first compound 0.00316 µM) was 90.4%. It also gave a viability, T/C (second compound 0.1 µM, first compound 0.01 µM) of 93.2%, a viability, T/C [3] of 69% and a viability, T/C [4] of 60.2%. The viability, T/C (second compound 0.316 µM, first compound 0.000316 µM) was 112%, the viability, T/C (second compound 0.316 µM, first compound 0.001 µM) was 94.3% and the viability, T/C (second compound 0.316 µM, first compound 0.00316 µM) was 84.9%. The viability, T/C (second compound 0.316 µM, first compound 0.01 µM) was 94%, the viability, T/C [5] was 77.9% and the viability, T/C [6] was 61.6%. For the same compound, the viability, T/C (second compound 1 µM, first compound 0.000316 µM) was 97.5%, the viability, T/C (second compound 1 µM, first compound 0.001 µM) was 92.8% and the viability, T/C (second compound 1 µM, first compound 0.00316 µM) was 99%. It also gave a viability, T/C (second compound 1 µM, first compound 0.01 µM) of 92.2%, a viability, T/C [7] of 83.2% and a viability, T/C [8] of 48.3%. The viability, T/C (second compound 3.16 µM, first compound 0.000316 µM) was 92.5%, the viability, T/C (second compound 3.16 µM, first compound 0.001 µM) was 106% and the viability, T/C (second compound 3.16 µM, first compound 0.00316 µM) was 83%. For the same compound, the viability, T/C (second compound 3.16 µM, first compound 0.01 µM) was 96.4%, the viability, T/C [9] was 80% and the viability, T/C [10] was 58%. It also gave a viability, T/C (second compound 10 µM, first compound 0.000316 µM) of 103%, a viability, T/C (second compound 10 µM, first compound 0.001 µM) of 89.4% and a viability, T/C (second compound 10 µM, first compound 0.00316 µM) of 98.8%. It also gave a viability, T/C (second compound 10 µM, first compound 0.01 µM) of 95.4%, a viability, T/C [11] of 69.7% and a viability, T/C [12] of 60.9%.

For `COc1cc2cc(C(=O)CCC(=O)O)sc2cc1OC` + Nc1ccc(C#CCN(C(=O)Cc2ncc(C(F)(F)F)cc2C(F)(F)F)c2ccc(F)cc2)nn1, the IC50 (second compound 0.0316 µM) was over 10 µM, the IC50 (second compound 0.1 µM) was over 10 µM and the IC50 (second compound 0.316 µM) was over 10 µM. For the same compound, the IC50 (second compound 1 µM) was over 10 µM, the IC50 (second compound 3.16 µM) was over 10 µM and the IC50 (second compound 10 µM) was over 10 µM. The viability, T/C [1] was 88.3%, the viability, T/C [2] was 94% and the viability, T/C [13] was 90.2%. The viability, T/C [14] was 98.3%, the viability, T/C [15] was 102% and the viability, T/C [16] was 88.9%. It also gave a viability, T/C [3] of 99%, a viability, T/C [4] of 93.8% and a viability, T/C [17] of 95.5%. The viability, T/C [18] was 110%, the viability, T/C [19] was 107% and the viability, T/C [20] was 106%. The viability, T/C [5] was 104%, the viability, T/C [6] was 97.3% and the viability, T/C [21] was 90.3%. For the same compound, the viability, T/C [22] was 105%, the viability, T/C [23] was 105% and the viability, T/C [24] was 104%. The viability, T/C [7] was 102%, the viability, T/C [8] was 94.2% and the viability, T/C [25] was 133%. The viability, T/C [26] was 96.9%, the viability, T/C [27] was 110% and the viability, T/C [28] was 97.8%. It also gave a viability, T/C [9] of 119%, a viability, T/C [10] of 122% and a viability, T/C [29] of 104%. It also gave a viability, T/C [30] of 102%, a viability, T/C [31] of 91.8% and a viability, T/C [32] of 102%. The viability, T/C [11] was 114%, the viability, T/C [12] was 124% and the viability, T/C [33] was 121%. It also gave a viability, T/C [34] of 111%, a viability, T/C [35] of 112% and a viability, T/C [36] of 109%.

Work on `COc1ccc([C@@H](O)c2cc(-c3ncnc4cc(N5CCOCC5)ccc34)c(F)cc2Cl)nn1` + Cc1cccc(N(C)C(=O)C2C(O)CCN2c2nc(C)cc(C(F)(F)F)c2C#N)c1 yielded an IC50 (second compound 0.0316 µM) of 4.08 µM, an IC50 (second compound 0.1 µM) of 3.67 µM and an IC50 (second compound 0.316 µM) of 4.14 µM. For the same compound, the IC50 (second compound 1 µM) was 3.54 µM, the IC50 (second compound 3.16 µM) was 3.35 µM and the IC50 (second compound 10 µM) was 4.46 µM. It also gave a viability, T/C [1] of 96.5%, a viability, T/C [2] of 94.2% and a viability, T/C [13] of 98.3%. It also gave a viability, T/C [14] of 78.9%, a viability, T/C [15] of 58.8% and a viability, T/C [16] of 22.6%. It also gave a viability, T/C [3] of 101%, a viability, T/C [4] of 106% and a viability, T/C [17] of 87.7%. For the same compound, the viability, T/C [18] was 85.3%, the viability, T/C [19] was 52.5% and the viability, T/C [20] was 22.9%. The viability, T/C [5] was 106%, the viability, T/C [6] was 88.9% and the viability, T/C [21] was 90.4%. For the same compound, the viability, T/C [22] was 84%, the viability, T/C [23] was 56.9% and the viability, T/C [24] was 22.6%. The viability, T/C [7] was 109%, the viability, T/C [8] was 95.8% and the viability, T/C [25] was 90.1%. For the same compound, the viability, T/C [26] was 78.9%, the viability, T/C [27] was 51.4% and the viability, T/C [28] was 21.2%. For the same compound, the viability, T/C [9] was 111%, the viability, T/C [10] was 94.7% and the viability, T/C [29] was 83.6%. It also gave a viability, T/C [30] of 75.2%, a viability, T/C [31] of 51% and a viability, T/C [32] of 27.4%. The viability, T/C [11] was 101%, the viability, T/C [12] was 100% and the viability, T/C [33] was 88.8%. For the same compound, the viability, T/C [34] was 74.1%, the viability, T/C [35] was 60.2% and the viability, T/C [36] was 30.9%.

Work on `CC1COCCN1c1cc(C2(S(C)(=N)=O)CC2)nc(-c2ccnc3[nH]ccc23)n1` (stereo not drawn) + Nc1ccc(C#CCN(C(=O)Cc2ncc(C(F)(F)F)cc2C(F)(F)F)c2ccc(F)cc2)nn1 yielded an IC50 (second compound 0.0316 µM) of over 10 µM, an IC50 (second compound 0.1 µM) of over 10 µM and an IC50 (second compound 0.316 µM) of over 10 µM. It also gave an IC50 (second compound 1 µM) of over 10 µM, an IC50 (second compound 3.16 µM) of over 10 µM and an IC50 (second compound 10 µM) of over 10 µM. For the same compound, the viability, T/C [1] was 109%, the viability, T/C [2] was 100% and the viability, T/C [13] was 89.4%. The viability, T/C [14] was 88.7%, the viability, T/C [15] was 75.8% and the viability, T/C [16] was 68.9%. It also gave a viability, T/C [3] of 106%, a viability, T/C [4] of 92.7% and a viability, T/C [17] of 96.6%. The viability, T/C [18] was 97.6%, the viability, T/C [19] was 76.2% and the viability, T/C [20] was 62.3%. The viability, T/C [5] was 104%, the viability, T/C [6] was 113% and the viability, T/C [21] was 110%. It also gave a viability, T/C [22] of 94.4%, a viability, T/C [23] of 80.1% and a viability, T/C [24] of 68.9%. It also gave a viability, T/C [7] of 114%, a viability, T/C [8] of 96.1% and a viability, T/C [25] of 99.9%. The viability, T/C [26] was 86%, the viability, T/C [27] was 74.7% and the viability, T/C [28] was 66.1%. The viability, T/C [9] was 108%, the viability, T/C [10] was 93.4% and the viability, T/C [29] was 123%. It also gave a viability, T/C [30] of 113%, a viability, T/C [31] of 88.1% and a viability, T/C [32] of 76.6%. For the same compound, the viability, T/C [11] was 110%, the viability, T/C [12] was 105% and the viability, T/C [33] was 106%. It also gave a viability, T/C [34] of 95.5%, a viability, T/C [35] of 82.6% and a viability, T/C [36] of 77.2%.
